≈ marks a conversion by molar mass, not a printed value.
Assays:
[1] = system: Mus musculus; test: Toxicity in ApoE knockout pro-atherogenic western diet-induced Tac mouse carotid artery ligation model of atherosclerosis assessed as histopathological changes in duodenum at 75 to 150 umol/kg/day mixed with food measured for 3 weeks by hematoxylin-eosin staining based assay; type: organism-based; settings: in vivo, po, 504 h
[2] = system: Mus musculus; test: Unbound clearance in C57Bl/6J mouse at 10 umol/kg, iv or 50 umol/kg, po; type: ADME, organism-based; settings: in vivo
[3] = target: Cytochrome P450 2C19 (Homo sapiens, UniProt P33261); test: Inhibition of recombinant human CYP2C19; type: ADME
[4] = system: Mus musculus; test: Toxicity in ApoE knockout pro-atherogenic western diet-induced Tac mouse carotid artery ligation model of atherosclerosis assessed as histopathological changes in ceacum at 75 to 150 umol/kg/day mixed with food measured for 3 weeks by hematoxylin-eosin staining based assay; type: organism-based; settings: in vivo, po, 504 h
[5] = target: Sodium channel protein type 5 subunit alpha (Homo sapiens, UniProt Q14524); test: Inhibition of human Nav1.5 expressed in CHO cells by ionworks patch clamp assay; type: cell-based
[6] = target: Group 10 secretory phospholipase A2 (Mus musculus, UniProt Q9QXX3); test: Inhibition of mouse sPLA2-10
[7] = Fraction unbound in C57Bl/6J mouse plasma; type: ADME, cell-free
[8] = Ratio of free drug level in ApoE knockout pro-atherogenic western diet-induced Tac mouse at 75 umol/kg measured after 1 week to IC50 for recombinant human sPLA2-10 using human HDL as substrate; type: ADME; settings: in vivo, 168 h
[9] = target: Voltage-dependent T-type calcium channel subunit alpha-1H (Homo sapiens, UniProt O95180); test: Inhibition of human Cav3.2 expressed in CHO cells by ionworks patch clamp assay; type: cell-based
Sequence of Voltage-dependent T-type calcium channel subunit alpha-1H (O95180 whole entry): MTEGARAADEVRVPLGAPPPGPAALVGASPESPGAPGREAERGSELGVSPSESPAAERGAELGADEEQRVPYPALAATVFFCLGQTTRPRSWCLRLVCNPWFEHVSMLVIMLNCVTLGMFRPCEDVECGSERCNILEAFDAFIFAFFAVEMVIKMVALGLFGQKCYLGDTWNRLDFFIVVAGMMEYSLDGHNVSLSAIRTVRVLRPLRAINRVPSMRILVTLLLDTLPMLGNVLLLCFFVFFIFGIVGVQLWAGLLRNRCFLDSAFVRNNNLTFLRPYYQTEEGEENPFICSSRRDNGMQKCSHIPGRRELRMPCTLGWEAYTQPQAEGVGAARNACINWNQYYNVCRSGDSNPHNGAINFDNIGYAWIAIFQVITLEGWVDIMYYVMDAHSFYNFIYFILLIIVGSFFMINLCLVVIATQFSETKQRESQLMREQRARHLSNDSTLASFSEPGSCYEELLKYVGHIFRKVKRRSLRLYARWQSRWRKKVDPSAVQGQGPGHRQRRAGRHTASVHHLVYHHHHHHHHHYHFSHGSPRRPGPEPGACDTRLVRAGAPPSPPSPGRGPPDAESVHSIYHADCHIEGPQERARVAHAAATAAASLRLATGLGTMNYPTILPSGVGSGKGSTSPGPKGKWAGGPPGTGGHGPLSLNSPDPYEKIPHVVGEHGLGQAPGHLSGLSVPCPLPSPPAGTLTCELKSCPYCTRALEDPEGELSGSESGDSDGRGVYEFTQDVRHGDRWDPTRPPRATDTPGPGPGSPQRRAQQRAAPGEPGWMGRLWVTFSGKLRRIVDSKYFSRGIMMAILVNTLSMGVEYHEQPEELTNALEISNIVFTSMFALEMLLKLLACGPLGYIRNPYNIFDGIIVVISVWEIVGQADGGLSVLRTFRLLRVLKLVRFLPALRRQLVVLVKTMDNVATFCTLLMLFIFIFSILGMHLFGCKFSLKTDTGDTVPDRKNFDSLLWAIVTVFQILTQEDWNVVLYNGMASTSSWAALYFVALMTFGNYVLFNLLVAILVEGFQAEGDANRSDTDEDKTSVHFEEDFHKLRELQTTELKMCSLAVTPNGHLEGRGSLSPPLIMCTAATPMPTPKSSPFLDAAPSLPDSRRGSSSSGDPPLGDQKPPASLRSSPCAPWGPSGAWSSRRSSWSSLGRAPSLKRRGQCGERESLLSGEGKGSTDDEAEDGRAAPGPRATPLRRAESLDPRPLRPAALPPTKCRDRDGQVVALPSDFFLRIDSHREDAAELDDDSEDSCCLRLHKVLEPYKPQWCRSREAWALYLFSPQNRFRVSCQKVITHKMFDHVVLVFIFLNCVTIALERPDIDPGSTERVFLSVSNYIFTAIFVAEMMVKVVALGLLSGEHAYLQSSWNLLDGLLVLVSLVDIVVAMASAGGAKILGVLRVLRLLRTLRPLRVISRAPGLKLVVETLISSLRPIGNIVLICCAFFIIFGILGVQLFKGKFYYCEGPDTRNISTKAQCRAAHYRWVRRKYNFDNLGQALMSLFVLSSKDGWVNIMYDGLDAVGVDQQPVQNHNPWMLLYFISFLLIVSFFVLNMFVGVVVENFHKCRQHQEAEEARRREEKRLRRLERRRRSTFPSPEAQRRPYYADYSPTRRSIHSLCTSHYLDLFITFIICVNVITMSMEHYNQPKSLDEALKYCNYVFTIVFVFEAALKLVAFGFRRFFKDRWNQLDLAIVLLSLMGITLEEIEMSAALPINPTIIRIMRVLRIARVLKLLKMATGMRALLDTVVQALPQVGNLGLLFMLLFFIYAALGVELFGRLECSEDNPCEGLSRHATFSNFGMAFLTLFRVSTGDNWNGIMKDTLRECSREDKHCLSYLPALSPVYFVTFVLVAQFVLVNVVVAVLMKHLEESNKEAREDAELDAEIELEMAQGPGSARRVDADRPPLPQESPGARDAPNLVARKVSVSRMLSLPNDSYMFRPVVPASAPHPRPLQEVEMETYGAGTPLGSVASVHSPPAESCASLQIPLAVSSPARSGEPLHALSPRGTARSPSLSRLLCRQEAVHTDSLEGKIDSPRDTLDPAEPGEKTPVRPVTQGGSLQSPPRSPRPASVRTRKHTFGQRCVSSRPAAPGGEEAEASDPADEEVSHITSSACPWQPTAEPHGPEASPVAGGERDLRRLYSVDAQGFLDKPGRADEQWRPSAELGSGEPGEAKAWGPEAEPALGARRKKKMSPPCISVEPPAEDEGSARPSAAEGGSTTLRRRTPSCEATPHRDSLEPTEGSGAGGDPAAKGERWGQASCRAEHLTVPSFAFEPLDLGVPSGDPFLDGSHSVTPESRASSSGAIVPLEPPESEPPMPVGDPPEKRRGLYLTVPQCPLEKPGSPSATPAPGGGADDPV

[10] = target: T1, Group 10 secretory phospholipase A2 (Homo sapiens, UniProt O15496); test: Inhibition of sPLA2-10 (unknown origin) using 1-palmitoyl-2-oleoyl-sn-glycero-3-phosphocholine as substrate pretreated for 20 mins followed by substrate addition and measured after 60 mins by NEFA based assay
T1 sequence (O15496 whole entry): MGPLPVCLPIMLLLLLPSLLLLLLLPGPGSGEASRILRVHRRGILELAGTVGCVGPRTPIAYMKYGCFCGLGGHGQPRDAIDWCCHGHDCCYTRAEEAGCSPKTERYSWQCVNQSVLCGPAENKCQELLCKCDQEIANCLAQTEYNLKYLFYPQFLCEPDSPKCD

[11] = target: Voltage-gated inwardly rectifying potassium channel KCNH2 (Homo sapiens, UniProt Q12809); test: Inhibition of human ERG expressed in CHO cells by ionworks patch clamp assay; type: cell-based
Sequence of Voltage-gated inwardly rectifying potassium channel KCNH2 (Q12809 whole entry): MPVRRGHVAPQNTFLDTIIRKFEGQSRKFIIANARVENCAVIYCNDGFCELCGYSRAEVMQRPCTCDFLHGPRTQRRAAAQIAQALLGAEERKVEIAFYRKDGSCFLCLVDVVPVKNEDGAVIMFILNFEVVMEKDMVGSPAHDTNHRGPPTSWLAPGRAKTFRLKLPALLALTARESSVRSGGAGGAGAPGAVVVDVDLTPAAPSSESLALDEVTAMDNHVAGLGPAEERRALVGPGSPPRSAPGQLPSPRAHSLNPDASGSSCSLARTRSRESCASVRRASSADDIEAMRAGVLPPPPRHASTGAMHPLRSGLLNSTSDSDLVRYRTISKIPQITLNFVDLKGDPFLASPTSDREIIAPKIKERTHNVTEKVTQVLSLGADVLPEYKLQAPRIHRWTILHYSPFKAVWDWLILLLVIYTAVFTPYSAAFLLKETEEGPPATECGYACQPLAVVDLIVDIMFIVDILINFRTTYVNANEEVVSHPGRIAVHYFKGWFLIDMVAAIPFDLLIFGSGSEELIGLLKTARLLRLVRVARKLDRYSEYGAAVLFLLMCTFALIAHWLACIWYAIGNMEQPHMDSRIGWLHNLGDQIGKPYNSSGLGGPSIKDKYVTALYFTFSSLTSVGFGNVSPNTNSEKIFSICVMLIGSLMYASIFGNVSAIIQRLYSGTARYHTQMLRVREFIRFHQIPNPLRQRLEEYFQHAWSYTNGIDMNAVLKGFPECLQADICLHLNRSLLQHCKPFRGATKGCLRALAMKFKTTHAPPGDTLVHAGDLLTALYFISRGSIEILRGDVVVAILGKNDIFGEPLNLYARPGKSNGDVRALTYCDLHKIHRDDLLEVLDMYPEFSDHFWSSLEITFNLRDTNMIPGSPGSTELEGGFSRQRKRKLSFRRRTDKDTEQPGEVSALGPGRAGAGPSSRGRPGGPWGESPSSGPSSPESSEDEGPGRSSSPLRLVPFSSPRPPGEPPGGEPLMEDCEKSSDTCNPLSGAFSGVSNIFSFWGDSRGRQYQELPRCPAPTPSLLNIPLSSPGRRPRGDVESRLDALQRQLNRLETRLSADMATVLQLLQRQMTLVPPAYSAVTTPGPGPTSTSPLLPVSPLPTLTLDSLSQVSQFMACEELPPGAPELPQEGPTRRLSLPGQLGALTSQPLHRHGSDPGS

[12] = system: Mus musculus; test: Toxicity in ApoE knockout pro-atherogenic western diet-induced Tac mouse carotid artery ligation model of atherosclerosis assessed as histopathological changes in kidney at 75 to 150 umol/kg/day mixed with food measured for 3 weeks by hematoxylin-eosin staining based assay; type: organism-based; settings: in vivo, po, 504 h
[13] = target: Cytochrome P450 1A2 (Homo sapiens, UniProt P05177); test: Inhibition of recombinant human CYP1A2; type: ADME
Sequence of Cytochrome P450 1A2 (P05177 whole entry): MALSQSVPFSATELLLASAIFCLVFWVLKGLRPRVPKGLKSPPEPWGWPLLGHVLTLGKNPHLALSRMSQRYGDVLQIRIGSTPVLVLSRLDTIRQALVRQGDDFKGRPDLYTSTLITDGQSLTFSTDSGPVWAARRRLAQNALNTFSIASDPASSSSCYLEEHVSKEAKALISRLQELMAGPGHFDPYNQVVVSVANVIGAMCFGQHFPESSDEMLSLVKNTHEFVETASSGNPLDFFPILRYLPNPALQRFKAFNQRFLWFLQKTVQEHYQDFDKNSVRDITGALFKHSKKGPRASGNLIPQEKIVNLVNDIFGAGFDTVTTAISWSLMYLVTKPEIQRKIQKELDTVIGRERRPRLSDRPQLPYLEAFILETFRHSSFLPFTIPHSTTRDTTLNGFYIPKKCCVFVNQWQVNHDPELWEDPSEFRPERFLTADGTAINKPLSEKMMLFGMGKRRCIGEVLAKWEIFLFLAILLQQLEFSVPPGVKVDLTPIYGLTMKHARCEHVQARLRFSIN

[14] = system: Mus musculus; test: Toxicity in ApoE knockout pro-atherogenic western diet-induced Tac mouse carotid artery ligation model of atherosclerosis assessed as histopathological changes in stomach at 75 to 150 umol/kg/day mixed with food measured for 3 weeks by hematoxylin-eosin staining based assay; type: organism-based; settings: in vivo, po, 504 h
[15] = target: T2, Phospholipase A2, membrane associated (Homo sapiens, UniProt P14555); test: Inhibition of sPLA2-2A (unknown origin) using 1-palmitoyl-2-oleoyl-sn-glycero-3-phosphocholine as substrate pretreated for 20 mins followed by substrate addition and measured after 60 mins by NEFA based assay
T2 sequence (P14555 whole entry): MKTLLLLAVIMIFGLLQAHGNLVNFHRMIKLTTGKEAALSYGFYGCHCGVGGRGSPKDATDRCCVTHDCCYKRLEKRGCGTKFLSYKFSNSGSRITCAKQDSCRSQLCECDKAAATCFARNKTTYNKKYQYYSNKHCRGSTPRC

[16] = system: Mus musculus; test: Toxicity in ApoE knockout pro-atherogenic western diet-induced Tac mouse carotid artery ligation model of atherosclerosis assessed as histopathological changes in lung at 75 to 150 umol/kg/day mixed with food measured for 3 weeks by hematoxylin-eosin staining based assay; type: organism-based; settings: in vivo, po, 504 h
[17] = Lipophilicity, log D of compound at pH 7.4; settings: buffer
[18] = system: Mus musculus; test: Toxicity in ApoE knockout pro-atherogenic western diet-induced Tac mouse carotid artery ligation model of atherosclerosis assessed as effect on liver enzyme levels at 75 to 150 umol/kg/day mixed with food measured for 3 weeks; type: organism-based; settings: in vivo, po, 504 h
[19] = Solubility of the compound in DMSO/HBSS solution at pH 7.4 after 24 hrs by LC-UV/MS analysis; type: physicochemical
[20] = Drug metabolism in human liver microsomes in presence of glutathione after 30 mins; type: ADME, microsome; settings: 0.5 h
[21] = target: Cytochrome P450 2C8 (Homo sapiens, UniProt P10632); test: Inhibition of recombinant human CYP2C8; type: ADME
[22] = target: Voltage-dependent L-type calcium channel subunit alpha-1C (Homo sapiens, UniProt Q13936); test: Inhibition of human Cav1.2 expressed in CHO cells by ionworks patch clamp assay; type: cell-based
[23] = system: Mus musculus; test: Toxicity in ApoE knockout pro-atherogenic western diet-induced Tac mouse carotid artery ligation model of atherosclerosis assessed as histopathological changes in liver at 75 to 150 umol/kg/day mixed with food measured for 3 weeks by hematoxylin-eosin staining based assay; type: organism-based; settings: in vivo, po, 504 h
[24] = Inhibition of human Iks expressed in CHO cells by ionworks patch clamp assay; type: cell-based
[25] = Oral bioavailability in C57Bl/6J mouse at 50 umol/kg; type: ADME, organism-based; settings: in vivo
[26] = system: Mus musculus; test: Toxicity in ApoE knockout pro-atherogenic western diet-induced Tac mouse carotid artery ligation model of atherosclerosis assessed as reduction in body weight at 75 to 150 umol/kg/day mixed with food measured for 3 weeks; type: organism-based; settings: in vivo, po, 504 h
[27] = system: Mus musculus; test: Toxicity in ApoE knockout pro-atherogenic western diet-induced Tac mouse carotid artery ligation model of atherosclerosis assessed as histopathological changes in heart at 75 to 150 umol/kg/day mixed with food measured for 3 weeks by hematoxylin-eosin staining based assay; type: organism-based; settings: in vivo, po, 504 h
[28] = target: T3, Phospholipase A2 group V (Homo sapiens, UniProt P39877); test: Inhibition of sPLA2-5 (unknown origin) using 1-palmitoyl-2-oleoyl-sn-glycero-3-phosphocholine as substrate pretreated for 20 mins followed by substrate addition and measured after 60 mins by NEFA based assay
T3 sequence (P39877 whole entry): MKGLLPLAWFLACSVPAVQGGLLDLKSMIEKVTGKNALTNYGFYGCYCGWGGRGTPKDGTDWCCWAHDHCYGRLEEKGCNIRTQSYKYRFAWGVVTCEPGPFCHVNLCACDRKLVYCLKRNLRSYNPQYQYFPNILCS

[29] = system: Mus musculus; test: Unbound clearance in C57Bl/6J mouse administered iv or po; type: ADME, organism-based; settings: in vivo
[30] = target: Cytochrome P450 2D6 (Homo sapiens, UniProt P10635); test: Inhibition of recombinant human CYP2D6; type: ADME
[31] = target: Cytochrome P450 3A4 (Homo sapiens, UniProt P08684); test: Inhibition of recombinant human CYP3A4; type: ADME
Sequence of Cytochrome P450 3A4 (P08684 whole entry): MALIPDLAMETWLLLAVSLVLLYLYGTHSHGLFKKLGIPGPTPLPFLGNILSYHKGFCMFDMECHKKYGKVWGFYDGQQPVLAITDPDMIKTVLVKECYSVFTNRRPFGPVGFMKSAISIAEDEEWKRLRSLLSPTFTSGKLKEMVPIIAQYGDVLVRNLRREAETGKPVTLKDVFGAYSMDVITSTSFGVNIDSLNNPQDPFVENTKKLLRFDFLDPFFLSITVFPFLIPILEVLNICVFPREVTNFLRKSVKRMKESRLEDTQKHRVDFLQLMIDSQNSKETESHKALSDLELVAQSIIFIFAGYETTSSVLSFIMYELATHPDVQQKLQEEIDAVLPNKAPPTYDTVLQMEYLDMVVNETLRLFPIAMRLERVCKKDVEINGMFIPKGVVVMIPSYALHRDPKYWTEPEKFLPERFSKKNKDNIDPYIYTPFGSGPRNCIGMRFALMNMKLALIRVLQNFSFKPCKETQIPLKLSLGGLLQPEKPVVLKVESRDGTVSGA

[32] = Ratio of free drug level in ApoE knockout pro-atherogenic western diet-induced Tac mouse at 150 umol/kg measured after 3 weeks to IC90 for recombinant human sPLA2-10 using human HDL as substrate; type: ADME; settings: in vivo, 504 h
[33] = target: Cytochrome P450 2C9 (Homo sapiens, UniProt P11712); test: Inhibition of recombinant human CYP2C9; type: ADME
Sequence of Cytochrome P450 2C9 (P11712 whole entry): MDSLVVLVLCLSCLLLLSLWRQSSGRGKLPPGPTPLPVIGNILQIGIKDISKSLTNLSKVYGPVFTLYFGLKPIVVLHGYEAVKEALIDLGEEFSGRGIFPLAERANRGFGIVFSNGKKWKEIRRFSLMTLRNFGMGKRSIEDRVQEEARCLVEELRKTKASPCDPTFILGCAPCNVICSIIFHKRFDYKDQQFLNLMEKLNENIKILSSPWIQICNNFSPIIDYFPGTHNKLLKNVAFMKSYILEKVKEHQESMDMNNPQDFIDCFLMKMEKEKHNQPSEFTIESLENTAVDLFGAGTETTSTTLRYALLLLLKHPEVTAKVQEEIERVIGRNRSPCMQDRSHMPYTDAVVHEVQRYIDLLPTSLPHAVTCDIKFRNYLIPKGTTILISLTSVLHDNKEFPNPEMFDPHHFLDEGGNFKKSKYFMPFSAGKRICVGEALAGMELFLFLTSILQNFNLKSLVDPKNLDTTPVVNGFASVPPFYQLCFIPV

[34] = target: T1, Group 10 secretory phospholipase A2; test: Inhibition of recombinant human sPLA2-10 using human HDL as substrate pretreated for 20 mins followed by substrate addition and measured after 60 mins by NEFA based assay
[35] = system: Mus musculus; test: Toxicity in ApoE knockout pro-atherogenic western diet-induced Tac mouse carotid artery ligation model of atherosclerosis assessed as histopathological changes in intestine at 75 to 150 umol/kg/day mixed with food measured for 3 weeks by hematoxylin-eosin staining based assay; type: organism-based; settings: in vivo, po, 504 h
[36] = Apparent permeability in human Caco2 cells; type: ADME, cell-based; settings: Caco-2
[37] = target: A-type voltage-gated potassium channel KCND3 (Homo sapiens, UniProt Q9UK17); test: Inhibition of human Kv4.3 expressed in CHO cells by ionworks patch clamp assay; type: cell-based
[38] = Ratio of free drug level in ApoE knockout pro-atherogenic western diet-induced Tac mouse at 150 umol/kg measured after 1 week to IC90 for recombinant human sPLA2-10 using human HDL as substrate; type: ADME; settings: in vivo, 168 h
[39] = Half life in human hepatocytes; type: ADME, cell-based, Hepatocyte
[40] = Volume of distribution at steady state in C57Bl/6J mouse at 10 umol/kg, iv or 50 umol/kg, po; type: ADME, organism-based; settings: in vivo, read-out: Vdss
[41] = Ratio of free drug level in ApoE knockout pro-atherogenic western diet-induced Tac mouse at 75 umol/kg measured after 3 weeks to IC50 for recombinant human sPLA2-10 using human HDL as substrate; type: ADME; settings: in vivo, 504 h

- CL free [2]: 306 mL/min/kg
- IC50 [3]: > 20 µM
- IC50 [6]: 0.075 µM
- fraction unbound [7]: 0.05
- Ratio [8]: > 7
- IC50 [9]: > 33 µM
- IC50 [10]: 0.014 µM
- IC50 [13]: > 20 µM
- IC50 [15]: 0.63 µM
- logD [17]: 0.9
- solubility at 24 h [19]: 100 µM (≈ 40.7 µg/mL)
- Drug metabolism [20]: Metabolite_Notdetected
- IC50 [21]: > 20 µM
- IC50 [24]: > 33 µM
- bioavailability [25]: 95%
- IC50 [28]: 5.5 µM
- CL free [29]: 306 mL/min/kg
- IC50 [30]: > 20 µM
- IC50 [31]: > 20 µM
- Ratio [32]: > 7
- IC50 [33]: > 20 µM
- IC50 [34]: 0.042 µM
- Papp [36]: 5.8 ×10⁻⁶ cm/s
- IC50 [37]: > 33 µM
- Ratio [38]: > 7
- half-life [39]: > 2.88 h
- Vd [40]: 0.52 L/kg
- Ratio [41]: > 7
SMILES: CC(CC(=O)O)c1cccc(-n2c(C(N)=O)cc3ccc(OC(F)(F)F)cc32)n1 (stereo in doubt; (-)-17)
- Activity [1]: Non-Toxic
- Activity [4]: Non-Toxic
- IC50 [5]: > 33 µM
- IC50 [11]: > 33 µM
- Activity [12]: Non-Toxic
- Activity [14]: Non-Toxic
- Activity [16]: Non-Toxic
- Activity [18]: Non-Toxic
- IC50 [22]: > 33 µM
- Activity [23]: Non-Toxic
- Activity [26]: Non-Toxic
- Activity [27]: Non-Toxic
- Activity [35]: Non-Toxic

Reference: ChEMBL document CHEMBL4196112, “Design of Selective sPLA2-X Inhibitor (-)-2-{2-[Carbamoyl-6-(trifluoromethoxy)-1H-indol-1-yl]pyridine-2-yl}propanoic Acid” (ACS Med Chem Lett, 2018)
